In the series the test system is CCRIS mutagenicity, Ames/micronucleus/aberration tests. Nature of the series: CCRIS mutagenicity studies.
[1] abbreviates: Test System: AMES SALMONELLA TYPHIMURIUM, Strain/Indicator: TA98, Metabolic Activation: NONE, Method: PREINCUBATION
The mark [2] stands for this setting: Test System: AMES SALMONELLA TYPHIMURIUM, Strain/Indicator: TA98, Metabolic Activation: NONE, Method: STANDARD PLATE.
Where [3] appears, read: Test System: AMES SALMONELLA TYPHIMURIUM, Strain/Indicator: TA100, Metabolic Activation: NONE, Method: STANDARD PLATE.
Setting [4] is: Test System: AMES SALMONELLA TYPHIMURIUM, Strain/Indicator: TA1535, Metabolic Activation: NONE, Method: STANDARD PLATE.
[5] abbreviates: Test System: AMES SALMONELLA TYPHIMURIUM, Strain/Indicator: TA1537, Metabolic Activation: NONE, Method: STANDARD PLATE.
Setting [6] is: Test System: AMES SALMONELLA TYPHIMURIUM, Strain/Indicator: TA1538, Metabolic Activation: NONE, Method: STANDARD PLATE.

Calls of active or inactive are those of the source. How the calls were made is not given here.

Regarding `O=[N+]([O-])c1ccc(Nc2ccc(N=C=S)cc2)cc1`, the mutagenic call by setting is: under setting [1], “inactive; negative”; under setting [2], “inactive; negative”; (Test System: AMES SALMONELLA TYPHIMURIUM, Strain/Indicator: TA98, Metabolic Activation: RAT, LIVER, S-9, AROCLOR 1254, Method: PREINCUBATION) “inactive; negative”; (Test System: AMES SALMONELLA TYPHIMURIUM, Strain/Indicator: TA98, Metabolic Activation: RAT, LIVER, S-9, AROCLOR 1254 OR PHENOBARBITOL, Method: STANDARD PLATE) “inactive; negative”; under setting [3], “inactive; negative”; (Test System: AMES SALMONELLA TYPHIMURIUM, Strain/Indicator: TA100, Metabolic Activation: RAT, LIVER, S-9, AROCLOR 1254 OR PHENOBARBITOL, Method: STANDARD PLATE) “inactive; negative”. In addition, the mutagenic call under setting [4] was “inactive; negative”; the mutagenic call (Test System: AMES SALMONELLA TYPHIMURIUM, Strain/Indicator: TA1535, Metabolic Activation: RAT, LIVER, S-9, AROCLOR 1254 OR PHENOBARBITOL, Method: STANDARD PLATE) is “inactive; negative”; the mutagenic call under setting [5] is “inactive; negative”; the mutagenic call (Test System: AMES SALMONELLA TYPHIMURIUM, Strain/Indicator: TA1537, Metabolic Activation: RAT, LIVER, S-9, AROCLOR 1254 OR PHENOBARBITOL, Method: STANDARD PLATE) was “inactive; negative”; the mutagenic call under setting [6] is “inactive; negative”; the mutagenic call (Test System: AMES SALMONELLA TYPHIMURIUM, Strain/Indicator: TA1538, Metabolic Activation: RAT, LIVER, S-9, AROCLOR 1254 OR PHENOBARBITOL, Method: STANDARD PLATE) was “inactive; negative”.

For the compound `CC(C)(C)C1=CC(=O)C=C(C2=CC(=O)C=C(C(C)(C)C)C2=O)C1=O`, the mutagenic call is, setting by setting: under setting [1], “active; positive”; (Test System: AMES SALMONELLA TYPHIMURIUM, Strain/Indicator: TA100, Metabolic Activation: NONE, Method: PREINCUBATION) “active; positive”.

For the compound `CC(C)N=C=NC(C)C`, the mutagenic call was “inactive; negative” (End Point: In vivo micronucleus, Test System: Bone marrow polychromatic erythrocytes, Species: Mouse, Strain/Sex: B6C3F1/Male, Route: Intraperitoneal); “inactive; negative” (End Point: In vivo micronucleus, Test System: Bone marrow polychromatic erythrocytes, Species: Rat, Strain/Sex: F344/N/Male, Route: Intraperitoneal); “active; positive; 100% mortality at 280 mg/kg” (End Point: In vivo micronucleus, Test System: Peripheral blood erythrocytes, Species: Mouse, Strain/Sex: B6C3F1/Female, Route: Dermal); “active; positive; 100% mortality at 280 mg/kg” (End Point: In vivo micronucleus, Test System: Peripheral blood erythrocytes, Species: Mouse, Strain/Sex: B6C3F1/Male, Route: Dermal); “inactive; positive (peripheral blood); negative (bone marrow)” (End Point: In vivo micronucleus, Test System: Peripheral blood normochromatic and polychromatic erythrocytes and bone marrow polychromatic erythrocytes, Species: Mouse, Strain/Sex: B6C3F1/Male, Route: Dermal); “active; positive in peripheral blood polychromatic erythrocytes; no significant increase” (End Point: In vivo micronucleus, Test System: Polychromatic erythrocytes (Bone marrow and peripheral blood), Species: Mouse, Strain/Sex: B6C3F1/Male, Route: Intraperitoneal). In addition, the mutagenic call was “inactive; negative” (Test System: AMES SALMONELLA TYPHIMURIUM, Strain/Indicator: TA98, Metabolic Activation: HAMSTER, LIVER, S-9, AROCLOR 1254, Method: STANDARD PLATE); “inactive; negative” under setting [2]; “inactive; negative” (Test System: AMES SALMONELLA TYPHIMURIUM, Strain/Indicator: TA98, Metabolic Activation: RAT, LIVER, S-9, AROCLOR 1254, Method: STANDARD PLATE); “inactive; negative” (Test System: AMES SALMONELLA TYPHIMURIUM, Strain/Indicator: TA100, Metabolic Activation: HAMSTER, LIVER, S-9, AROCLOR 1254, Method: STANDARD PLATE); “inactive; negative” under setting [3]; “inactive; negative” (Test System: AMES SALMONELLA TYPHIMURIUM, Strain/Indicator: TA100, Metabolic Activation: RAT, LIVER, S-9, AROCLOR 1254, Method: STANDARD PLATE). The mutagenic call was “inactive; negative” (Test System: AMES SALMONELLA TYPHIMURIUM, Strain/Indicator: TA1535, Metabolic Activation: HAMSTER, LIVER, S-9, AROCLOR 1254, Method: STANDARD PLATE); “inactive; negative” under setting [4]; “inactive; negative” (Test System: AMES SALMONELLA TYPHIMURIUM, Strain/Indicator: TA1535, Metabolic Activation: RAT, LIVER, S-9, AROCLOR 1254, Method: STANDARD PLATE); “inactive; negative” (Test System: AMES SALMONELLA TYPHIMURIUM, Strain/Indicator: TA1537, Metabolic Activation: HAMSTER, LIVER, S-9, AROCLOR 1254, Method: STANDARD PLATE); “inactive; negative” under setting [5]; “inactive; negative” (Test System: AMES SALMONELLA TYPHIMURIUM, Strain/Indicator: TA1537, Metabolic Activation: RAT, LIVER, S-9, AROCLOR 1254, Method: STANDARD PLATE). Further, the mutagenic call is, setting by setting: (Test System: AMES SALMONELLA TYPHIMURIUM, Strain/Indicator: TA1538, Metabolic Activation: HAMSTER, LIVER, S-9, AROCLOR 1254, Method: STANDARD PLATE) “inactive; negative”; under setting [6], “inactive; negative”; (Test System: AMES SALMONELLA TYPHIMURIUM, Strain/Indicator: TA1538, Metabolic Activation: RAT, LIVER, S-9, AROCLOR 1254, Method: STANDARD PLATE) “inactive; negative”; (Test System: Ames Salmonella typhimurium, Strain/Indicator: TA97, Metabolic Activation: None, Method: Preincubation) “inactive; negative”; (Test System: Ames Salmonella typhimurium, Strain/Indicator: TA97, Metabolic Activation: Rat, liver, S-9, Aroclor 1254, Method: Preincubation) “inactive; negative”; (Test System: Ames Salmonella typhimurium, Strain/Indicator: TA97, Metabolic Activation: Syrian hamster, liver, S-9, Aroclor 1254, Method: Preincubation) “inactive; negative”. For the same compound, the mutagenic call by setting is: (Test System: Ames Salmonella typhimurium, Strain/Indicator: TA98, Metabolic Activation: None, Method: Preincubation) “inactive; negative”; (Test System: Ames Salmonella typhimurium, Strain/Indicator: TA98, Metabolic Activation: Rat, liver, S-9, Aroclor 1254, Method: Preincubation) “inactive; negative”; (Test System: Ames Salmonella typhimurium, Strain/Indicator: TA98, Metabolic Activation: Syrian hamster, liver, S-9, Aroclor 1254, Method: Preincubation) “inactive; negative”; (Test System: Ames Salmonella typhimurium, Strain/Indicator: TA100, Metabolic Activation: None, Method: Preincubation) “inactive; negative”; (Test System: Ames Salmonella typhimurium, Strain/Indicator: TA100, Metabolic Activation: Rat, liver, S-9, Aroclor 1254, Method: Preincubation) “inactive; negative”; (Test System: Ames Salmonella typhimurium, Strain/Indicator: TA100, Metabolic Activation: Syrian hamster, liver, S-9, Aroclor 1254, Method: Preincubation) “inactive; negative”. The mutagenic call (Test System: Ames Salmonella typhimurium, Strain/Indicator: TA1535, Metabolic Activation: None, Method: Preincubation) was “inactive; negative”; the mutagenic call (Test System: Ames Salmonella typhimurium, Strain/Indicator: TA1535, Metabolic Activation: Rat, liver, S-9, Aroclor 1254, Method: Preincubation) is “inactive; negative”; the mutagenic call (Test System: Ames Salmonella typhimurium, Strain/Indicator: TA1535, Metabolic Activation: Syrian hamster, liver, S-9, Aroclor 1254, Method: Preincubation) was “inactive; negative”; the mutagenic call (Test System: MOUSE LYMPHOMA, Strain/Indicator: L5178Y (TK+/TK-), Metabolic Activation: NONE, Method: SUSPENSION/PLATE) is “active; positive. reevaluation of results: positive”; the mutagenic call (Test System: MOUSE LYMPHOMA, Strain/Indicator: L5178Y (TK+/TK-), Metabolic Activation: RAT, LIVER, S-9, AROCLOR 1254, Method: SUSPENSION/PLATE) was “active; positive. reevaluation of results: positive”.

These data come from PubChem BioAssay AID1259407 (Chemical Carcinogenesis Research Information System (CCRIS), 2018).
